Test results: ChEMBL document CHEMBL1128276, “Quinazoline antifolate thymidylate synthase inhibitors: replacement of glutamic acid in the C2-methyl series” (J Med Chem, 1995)

Tests used:
[1] = tested on: L1210 (1565); assay: Concentration to inhibit cell growth was measured on L1210:1565 cell line; type: functional, cell-based; conditions: Mus musculus
[2] = tested on: L1210 (1565); assay: Relative resistance was measured in L1210:1565 cell line; type: functional, cell-based; conditions: Mus musculus
[3] = tested on: L1210; assay: Inhibition of L1210 cell growth; type: functional, cell-based; conditions: Mus musculus
[4] = molecular target: T1, Thymidylate synthase (Mus musculus, UniProt P07607); assay: Inhibition of thymidylate synthase purified from mouse L1210 leukemia cells that overproduce thymidylate synthase (TS); type: cell-free
[5] = molecular target: T1, Thymidylate synthase; assay: Ability to inhibit Thymidylate synthase purified from mouse L1210 leukemia cells that overproduce thymidylate synthase (TS)
[6] = tested on: L1210; assay: Ability to inhibit cell growth was measured on L1210 cells(horse serum); type: functional, cell-based; conditions: Mus musculus

T1 sequence (P07607 whole entry): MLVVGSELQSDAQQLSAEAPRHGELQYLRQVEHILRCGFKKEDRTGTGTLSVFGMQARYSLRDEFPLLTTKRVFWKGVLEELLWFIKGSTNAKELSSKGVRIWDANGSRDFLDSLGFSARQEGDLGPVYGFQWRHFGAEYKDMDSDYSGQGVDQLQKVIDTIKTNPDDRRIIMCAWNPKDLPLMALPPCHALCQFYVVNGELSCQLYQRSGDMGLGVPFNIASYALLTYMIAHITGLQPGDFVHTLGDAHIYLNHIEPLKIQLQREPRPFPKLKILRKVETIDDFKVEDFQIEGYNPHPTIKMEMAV

IC50 [1]	IC50 [3]	IC50 [4]	IC50 [5]	IC50 [6]	Structure (SMILES)	Relative resistance [2]
13000 nM	9000 nM	24 nM			C#CCN(Cc1ccc2nc(C)nc(O)c2c1)c1ccc(C(=O)N[C@@H](C(=O)O)c2cccc([N+](=O)[O-])c2)cc1	1.4 dimensionless ratio
	25000 nM	150 nM			C#CCN(Cc1ccc2nc(C)nc(O)c2c1)c1ccc(C(=O)N[C@H](C)C(=O)O)cc1	
520 nM	620 nM		114 nM		C#CCN(Cc1cc2c(O)nc(C)nc2cc1C)c1ccc(C(=O)NCc2ccccn2)c(F)c1	0.84 dimensionless ratio
	41000 nM	170 nM			C#CCN(Cc1ccc2nc(C)nc(O)c2c1)c1ccc(C(=O)N[C@H](Cc2ccccc2)C(=O)O)cc1	
		320 nM		2200 nM	C#CCN(Cc1ccc2nc(C)nc(O)c2c1)c1ccc(C(=O)NCc2ccc([N+](=O)[O-])cc2)cc1	
5280 nM	880 nM		7 nM		C#CCN(Cc1cc2c(O)nc(C)nc2cc1C)c1ccc(C(=O)N[C@@H](C(=O)O)C(C)(C)C)c(F)c1	6 dimensionless ratio
400 nM		110 nM		1200 nM	C#CCN(Cc1ccc2nc(C)nc(O)c2c1)c1ccc(C(=O)NCc2cccc([N+](=O)[O-])c2)cc1	0.37 dimensionless ratio
40000 nM	2200 nM				C#CCN(Cc1ccc2nc(C)nc(O)c2c1)c1ccc(C(=O)N[C@H](CCC(N)=O)C(=O)O)cc1	
	> 20000 nM	42 nM			C#CCN(Cc1ccc2nc(C)nc(O)c2c1)c1ccc(C(=O)N[C@H](Cc2ccc([N+](=O)[O-])cc2)C(=O)O)cc1	
2910 nM	1700 nM		6 nM		C#CCN(Cc1cc2c(O)nc(C)nc2cc1C)c1ccc(C(=O)N[C@@H](C(=O)O)C(C)C)c(F)c1	1.71 dimensionless ratio
5000 nM	6000 nM		760 nM		C#CCN(Cc1ccc2nc(C)nc(O)c2c1)c1ccc(C(=O)NCc2nccs2)cc1	0.83 dimensionless ratio
	8600 nM	2260 nM			C#CCN(Cc1ccc2nc(C)nc(O)c2c1)c1ccc(C(=O)NCCC)cc1	
		270 nM		85000 nM	C#CCN(Cc1ccc2nc(C)nc(O)c2c1)c1ccc(C(=O)NCc2cccc(C(=O)O)c2)cc1	
	4000 nM	720 nM			C#CCN(Cc1ccc2nc(C)nc(O)c2c1)c1ccc(C(=O)NCc2ccccc2)cc1	
	7200 nM	22900 nM			C#CCN(Cc1ccc2nc(C)nc(O)c2c1)c1ccc(C(=O)NCC)cc1	
		7700 nM		70000 nM	C#CCN(Cc1ccc2nc(C)nc(O)c2c1)c1ccc(C(=O)NCc2ccc(Cl)cc2)cc1	
90 nM	230 nM		48 nM		C#CCN(Cc1cc2c(O)nc(C)nc2cc1C)c1ccc(C(=O)NCc2cccc(C#N)c2)c(F)c1	0.38 dimensionless ratio
	5500 nM	1460 nM			C#CCN(Cc1ccc2nc(C)nc(O)c2c1)c1ccc(C(=O)NCc2ccsc2)cc1	
	11000 nM	1820 nM			C#CCN(Cc1ccc2nc(C)nc(O)c2c1)c1ccc(C(=O)Nc2ccccc2)cc1	
5000 nM		450 nM		3900 nM	C#CCN(Cc1ccc2nc(C)nc(O)c2c1)c1ccc(C(=O)NCc2ccccn2)cc1	1.28 dimensionless ratio
400 nM	1100 nM	860 nM			C#CCN(Cc1ccc2nc(C)nc(O)c2c1)c1ccc(C(=O)NCc2cncs2)cc1	0.36 dimensionless ratio
	> 100000 nM	520 nM			C#CCN(Cc1ccc2nc(C)nc(O)c2c1)c1ccc(C(=O)NCC(=O)O)cc1	
23000 nM	960 nM	58 nM			C#CCN(Cc1ccc2nc(C)nc(O)c2c1)c1ccc(C(=O)N[C@@H](C(=O)O)C(C)C)cc1	23 dimensionless ratio

Further lines, the compound ahead of its results:

Structure (SMILES)	IC50 [1]	IC50 [3]	IC50 [4]	IC50 [5]	IC50 [6]	Relative resistance [2]
C#CCN(Cc1ccc2nc(C)nc(O)c2c1)c1ccc(C(=O)N[C@@H](C(=O)O)c2ccc(F)cc2)cc1		74000 nM		89 nM		
C#CCN(Cc1cc2c(O)nc(C)nc2cc1C)c1ccc(C(=O)NCc2nccs2)c(F)c1	500 nM	660 nM		100 nM		0.76 dimensionless ratio
C#CCN(Cc1ccc2nc(C)nc(O)c2c1)c1ccc(C(=O)NCc2cscn2)cc1	4800 nM	8000 nM		1720 nM		0.6 dimensionless ratio
C#CCN(Cc1ccc2nc(C)nc(O)c2c1)c1ccc(C(=O)NCc2nc(C)cs2)cc1	1600 nM	1700 nM		770 nM		0.91 dimensionless ratio
C#CCN(Cc1ccc2nc(C)nc(O)c2c1)c1ccc(C(=O)N[C@H](CCC(=O)O)C(=O)O)cc1	8200 nM	90 nM				
C#CCN(Cc1ccc2nc(C)nc(O)c2c1)c1ccc(C(=O)N[C@@H](C(=O)O)c2ccccc2)cc1	30000 nM	15000 nM	34 nM			2 dimensionless ratio
C#CCN(Cc1cc2c(O)nc(C)nc2cc1C)c1ccc(C(=O)N[C@H](CCC(=O)O)C(=O)O)c(F)c1	5920 nM	80 nM	9 nM			74 dimensionless ratio
C#CCN(Cc1ccc2nc(C)nc(O)c2c1)c1ccc(C(=O)N[C@@H](C(=O)O)C(C)(C)C)cc1	14000 nM	2000 nM	58 nM			7 dimensionless ratio
C#CCN(Cc1ccc2nc(C)nc(O)c2c1)c1ccc(C(=O)N[C@H](CCC)C(=O)O)cc1	34000 nM	2500 nM				
C#CCN(Cc1cc2c(O)nc(C)nc2cc1C)c1ccc(C(=O)N[C@@H](C(=O)O)c2cccc([N+](=O)[O-])c2)c(F)c1	1250 nM	2450 nM	4.4 nM			0.51 dimensionless ratio
C#CCN(Cc1ccc2nc(C)nc(O)c2c1)c1ccc(C(=O)NC)cc1		25000 nM	4200 nM			
C#CCN(Cc1ccc2nc(C)nc(O)c2c1)c1ccc(C(=O)NCc2ccco2)cc1			1420 nM		6000 nM	
C#CCN(Cc1cc2c(O)nc(C)nc2cc1C)c1ccc(C(=O)NCc2cccc([N+](=O)[O-])c2)c(F)c1	180 nM	210 nM	44 nM			0.86 dimensionless ratio
C#CCN(Cc1ccc2nc(C)nc(O)c2c1)c1ccc(C(=O)N[C@@H](C(=O)O)c2cccc(O)c2)cc1		90000 nM		160 nM		
C#CCN(Cc1ccc2nc(C)nc(O)c2c1)c1ccc(C(=O)NCc2ccoc2)cc1		5500 nM	1380 nM			
C#CCN(Cc1ccc2nc(C)nc(O)c2c1)c1ccc(C(=O)NCc2ccccc2[N+](=O)[O-])cc1	7500 nM		320 nM		1800 nM	4.2 dimensionless ratio
C#CCN(Cc1ccc2nc(C)nc(O)c2c1)c1ccc(C(=O)NCc2cccc(C#N)c2)cc1	500 nM		280 nM		1500 nM	0.33 dimensionless ratio
C#CCN(Cc1cc2c(O)nc(C)nc2cc1C)c1ccc(C(=O)NCc2cncs2)c(F)c1	240 nM	620 nM		110 nM		0.39 dimensionless ratio
